Columns and labels:
[1] = biological target: human Cereblon WT GST-tagged protein (Homo sapiens (Human), UniProt Q96SW2); test: CRBN-binding affinity, HTRF (CEREBLON BINDING kit, CISBIO); conditions: HTRF inhibitory activity
How it was run: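 Compounds were mixed with GST-tagged human Cereblon WT protein, then with Thalidomide-Red tracer and GST Eu antibody, and binding was read by HTRF. Inhibition rate was calculated from 620 nm emission relative to blank control wells (no protein) and solvent control wells.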

IKZF1 = IKZF1 (Homo sapiens (Human), UniProt Q13422+Q96SW2); test: Western blot, substrate protein expression in hPBMC: IKZF1; format: cell-based; conditions: hPBMC, compound 500 nM, 24 hours, Western blot
How it was run: (§1)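 hPBMC, 1×10^6 cells/mL, 24 h compound exposure; RIPA lysis, BCA protein assay, SDS-PAGE, NC membrane immunoblot. Densitometry vs internal control → % protein remaining; degradation % = 100% − remaining; DC50 = conc. at 50% of DMSO band signal.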

IKZF3 = IKZF3 (Homo sapiens (Human), UniProt Q96SW2+Q9UKT9); test: Western blot, substrate protein expression in hPBMC: IKZF3; format: cell-based; conditions: hPBMC, compound 500 nM, 24 hours, Western blot
How it was run: as §1

GSPT1 = GSPT1 (Homo sapiens (Human), UniProt P15170+Q96SW2); test: Western blot, substrate protein expression in hPBMC: GSPT1; format: cell-based; conditions: for substrate protein remaining % GSPT1: hPBMC, compound 500 nM, 24 hours, Western blot
How it was run: as §1

Chain of GSPT1 (P15170 whole entry): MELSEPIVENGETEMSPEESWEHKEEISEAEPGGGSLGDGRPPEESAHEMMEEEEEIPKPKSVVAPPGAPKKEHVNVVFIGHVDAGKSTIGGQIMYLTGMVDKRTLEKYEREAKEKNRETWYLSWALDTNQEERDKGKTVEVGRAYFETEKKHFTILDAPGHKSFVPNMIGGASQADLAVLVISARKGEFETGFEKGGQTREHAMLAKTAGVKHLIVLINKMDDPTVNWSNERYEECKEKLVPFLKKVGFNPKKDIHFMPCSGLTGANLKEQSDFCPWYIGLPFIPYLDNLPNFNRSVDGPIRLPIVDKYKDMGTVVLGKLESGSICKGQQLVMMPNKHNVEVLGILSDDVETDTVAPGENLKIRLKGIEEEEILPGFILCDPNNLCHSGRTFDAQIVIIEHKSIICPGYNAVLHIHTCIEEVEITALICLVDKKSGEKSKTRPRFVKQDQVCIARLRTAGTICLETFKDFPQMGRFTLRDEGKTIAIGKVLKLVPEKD
Chain of GSPT1 (Q96SW2 whole entry): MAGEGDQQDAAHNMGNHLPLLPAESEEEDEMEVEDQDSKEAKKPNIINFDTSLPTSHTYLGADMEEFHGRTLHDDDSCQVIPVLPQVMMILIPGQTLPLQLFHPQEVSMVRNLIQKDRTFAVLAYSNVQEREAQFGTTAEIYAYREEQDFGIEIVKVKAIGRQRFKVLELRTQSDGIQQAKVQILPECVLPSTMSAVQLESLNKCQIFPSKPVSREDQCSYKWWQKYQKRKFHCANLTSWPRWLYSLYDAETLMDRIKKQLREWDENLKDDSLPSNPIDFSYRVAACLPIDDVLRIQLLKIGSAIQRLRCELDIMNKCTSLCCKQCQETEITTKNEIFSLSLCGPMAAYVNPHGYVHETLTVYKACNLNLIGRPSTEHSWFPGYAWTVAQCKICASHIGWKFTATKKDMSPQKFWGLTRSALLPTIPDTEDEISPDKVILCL
Chain of GSPT1 (Q16531 whole entry partner): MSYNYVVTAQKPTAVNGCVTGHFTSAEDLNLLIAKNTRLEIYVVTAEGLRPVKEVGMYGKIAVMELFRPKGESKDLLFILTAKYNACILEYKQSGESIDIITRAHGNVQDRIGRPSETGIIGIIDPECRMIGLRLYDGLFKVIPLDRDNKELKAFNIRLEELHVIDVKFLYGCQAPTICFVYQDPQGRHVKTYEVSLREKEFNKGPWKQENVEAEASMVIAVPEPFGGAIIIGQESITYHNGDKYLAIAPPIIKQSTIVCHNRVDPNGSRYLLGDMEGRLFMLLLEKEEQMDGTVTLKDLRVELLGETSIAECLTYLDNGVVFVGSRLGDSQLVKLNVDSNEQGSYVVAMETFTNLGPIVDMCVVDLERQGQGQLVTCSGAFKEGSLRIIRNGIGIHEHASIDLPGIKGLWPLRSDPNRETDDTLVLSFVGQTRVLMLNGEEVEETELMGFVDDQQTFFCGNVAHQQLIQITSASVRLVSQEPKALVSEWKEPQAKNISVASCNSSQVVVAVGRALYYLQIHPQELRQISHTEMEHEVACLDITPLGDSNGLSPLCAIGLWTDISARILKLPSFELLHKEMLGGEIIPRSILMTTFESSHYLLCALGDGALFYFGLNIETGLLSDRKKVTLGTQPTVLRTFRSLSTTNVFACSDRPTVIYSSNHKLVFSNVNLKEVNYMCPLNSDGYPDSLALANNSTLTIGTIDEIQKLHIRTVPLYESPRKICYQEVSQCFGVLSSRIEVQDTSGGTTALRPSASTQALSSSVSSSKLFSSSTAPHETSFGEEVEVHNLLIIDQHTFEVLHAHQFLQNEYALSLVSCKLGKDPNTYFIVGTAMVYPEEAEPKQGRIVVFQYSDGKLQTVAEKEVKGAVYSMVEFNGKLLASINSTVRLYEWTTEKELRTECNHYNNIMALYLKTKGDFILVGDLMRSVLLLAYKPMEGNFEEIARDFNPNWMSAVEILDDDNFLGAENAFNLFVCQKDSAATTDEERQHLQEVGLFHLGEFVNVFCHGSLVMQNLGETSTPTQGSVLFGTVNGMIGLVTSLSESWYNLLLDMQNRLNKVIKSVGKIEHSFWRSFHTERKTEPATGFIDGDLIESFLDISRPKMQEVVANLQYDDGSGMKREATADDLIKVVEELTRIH
Chain of IKZF1 (Q13422 whole entry): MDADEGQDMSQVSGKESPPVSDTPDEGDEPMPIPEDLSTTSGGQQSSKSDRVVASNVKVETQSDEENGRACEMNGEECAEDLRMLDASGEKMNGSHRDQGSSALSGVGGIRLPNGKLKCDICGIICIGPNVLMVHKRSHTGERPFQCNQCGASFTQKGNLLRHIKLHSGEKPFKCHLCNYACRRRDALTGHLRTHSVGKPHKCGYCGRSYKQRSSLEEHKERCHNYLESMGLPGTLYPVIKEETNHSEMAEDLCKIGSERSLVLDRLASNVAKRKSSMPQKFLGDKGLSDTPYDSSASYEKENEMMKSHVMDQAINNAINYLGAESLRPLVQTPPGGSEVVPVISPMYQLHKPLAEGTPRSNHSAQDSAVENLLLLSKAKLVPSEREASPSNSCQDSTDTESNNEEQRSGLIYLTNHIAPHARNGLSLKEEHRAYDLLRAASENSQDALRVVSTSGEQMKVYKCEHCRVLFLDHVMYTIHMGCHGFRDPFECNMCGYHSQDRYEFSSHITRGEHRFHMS
Chain of IKZF1 (Q96SW2 whole entry): as the sequence (Q96SW2 whole entry) above
Chain of IKZF1 (Q16531 whole entry partner): as the sequence (Q16531 whole entry partner) above
Chain of human Cereblon WT GST-tagged protein (Q96SW2 whole entry): as the sequence (Q96SW2 whole entry) above
Chain of IKZF3 (Q9UKT9 whole entry): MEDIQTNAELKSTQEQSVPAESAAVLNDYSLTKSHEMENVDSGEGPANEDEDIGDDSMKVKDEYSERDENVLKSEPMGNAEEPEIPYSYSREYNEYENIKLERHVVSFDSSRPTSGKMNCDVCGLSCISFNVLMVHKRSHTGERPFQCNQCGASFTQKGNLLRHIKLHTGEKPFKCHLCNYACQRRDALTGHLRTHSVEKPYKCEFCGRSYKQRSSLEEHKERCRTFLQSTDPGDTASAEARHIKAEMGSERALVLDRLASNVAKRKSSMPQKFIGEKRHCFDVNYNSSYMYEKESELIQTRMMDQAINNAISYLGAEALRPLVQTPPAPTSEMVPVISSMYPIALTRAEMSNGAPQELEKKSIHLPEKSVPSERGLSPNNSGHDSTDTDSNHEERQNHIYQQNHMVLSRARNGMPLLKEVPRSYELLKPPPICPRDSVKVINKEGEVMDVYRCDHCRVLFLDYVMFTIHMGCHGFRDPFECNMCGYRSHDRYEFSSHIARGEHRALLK
Chain of IKZF3 (Q96SW2 whole entry): as the sequence (Q96SW2 whole entry) above
Chain of IKZF3 (Q16531 whole entry partner): as the sequence (Q16531 whole entry partner) above

Compound | IC50 [1] | substrate protein remaining % IKZF1 (IKZF1) | substrate protein remaining % IKZF3 (IKZF3) | substrate protein remaining % GSPT1 (GSPT1) | concentration at which GSPT1 protein was clearly/significantly degraded (Western blot, FIG. 1) (GSPT1; hPBMCs)
CC1CN(C(c2ccccc2)c2ccccc2)CC(C)N1Cc1ccc2c(c1)CN(C1CCC(=O)NC1=O)C2=O (stereo not shown) [GT-03723, 3-(5-((4-benzhydryl-2,6-dimethylpiperazin-1-yl)methyl)-1-oxoisoindolin-2-yl)piperidine-2,6-dione] | 500 to 1000 nM | B (B represents substrate protein remaining % > 50%) | B (B represents substrate protein remaining % > 50%) | A (A represents 0% ≤ substrate protein remaining % ≤ 50%) | 
O=C1CCC(N2Cc3c(ccc(CN4CC5CCC(C4)N5C(c4ccccc4)c4ccccc4)c3F)C2=O)C(=O)N1 (stereo not shown) [GT-03725, 3-(5-((8-benzhydryl-3,8-diazabicyclo[3.2.1]octan-3-yl)methyl)-4-fluoro-1-oxoisoindolin-2-yl)piperidine-2,6-dione] | 500 to 1000 nM | A (A represents 0% ≤ substrate protein remaining % ≤ 50%) | A (A represents 0% ≤ substrate protein remaining % ≤ 50%) | A (A represents 0% ≤ substrate protein remaining % ≤ 50%) | 
CC1CN(C(c2ccccc2)c2ccccc2)CC(C)N1Cc1ccc2c(c1F)CN(C1CCC(=O)NC1=O)C2=O (stereo not shown) [GT-03726, 3-(5-((4-benzhydryl-2,6-dimethylpiperazin-1-yl)methyl)-4-fluoro-1-oxoisoindolin-2-yl)piperidine-2,6-dione] | < 500 nM | B (B represents substrate protein remaining % > 50%) | B (B represents substrate protein remaining % > 50%) | A (A represents 0% ≤ substrate protein remaining % ≤ 50%) | 
O=C1CCC(N2Cc3c(CN4CCN(C(c5ccccc5)c5ccccn5)CC4)cccc3C2=O)C(=O)N1 (stereo not shown) [GT-03836, 3-(1-oxo-4-((4-(phenyl(pyridin-2-yl)methyl)piperazin-1-yl)methyl)isoindolin-2-yl)piperidine-2,6-dione] | 500 to 1000 nM | B (B represents substrate protein remaining % > 50%) | B (B represents substrate protein remaining % > 50%) | A (A represents 0% ≤ substrate protein remaining % ≤ 50%) | 
O=C1CCC(N2Cc3c(ccc(CN4C5CCC4CN(C(c4ccccc4)c4ccccc4)C5)c3F)C2=O)C(=O)N1 (stereo not shown) [GT-03838, 3-(5-((3-benzhydryl-3,8-diazabicyclo[3.2.1]octan-8-yl)methyl)-4-fluoro-1-oxoisoindolin-2-yl)piperidine-2,6-dione] | 500 to 1000 nM | A (A represents 0% ≤ substrate protein remaining % ≤ 50%) | A (A represents 0% ≤ substrate protein remaining % ≤ 50%) | A (A represents 0% ≤ substrate protein remaining % ≤ 50%) | 
CC1CN(Cc2ccc3c(c2)CN(C2CCC(=O)NC2=O)C3=O)CC(C)N1C(c1ccccc1)c1ccccc1 (stereo not shown) [GT-03872, 3-(5-((4-benzhydryl-3,5-dimethylpiperazin-1-yl)methyl)-1-oxoisoindolin-2-yl)piperidine-2,6-dione] | 1000 to 1900 nM | B (B represents substrate protein remaining % > 50%) | A (A represents 0% ≤ substrate protein remaining % ≤ 50%) | A (A represents 0% ≤ substrate protein remaining % ≤ 50%) | 
CC1CN(C(c2ccccc2)c2ccccc2)CC(C)N1Cc1cc2c(cc1F)C(=O)N(C1CCC(=O)NC1=O)C2 (stereo not shown) [GT-03873, 3-(5-((4-benzhydryl-2,6-dimethylpiperazin-1-yl)methyl)-6-fluoro-1-oxoisoindolin-2-yl)piperidine-2,6-dione] | < 500 nM | A (A represents 0% ≤ substrate protein remaining % ≤ 50%) | B (B represents substrate protein remaining % > 50%) | A (A represents 0% ≤ substrate protein remaining % ≤ 50%) | 
O=C1CCC(N2Cc3cc(CN4CC5CCC4CN5C(c4ccccc4)c4ccccc4)ccc3C2=O)C(=O)N1 (stereo not shown) [GT-03993, 3-(5-((5-benzhydryl-2,5-diazabicyclo[2.2.2]octan-2-yl)methyl)-1-oxoisoindolin-2-yl)piperidine-2,6-dione] | < 500 nM | B (B represents substrate protein remaining % > 50%) | A (A represents 0% ≤ substrate protein remaining % ≤ 50%) | A (A represents 0% ≤ substrate protein remaining % ≤ 50%) | 
O=C1CCC(N2Cc3cc(CN4CCCN(C(c5ccccc5)c5ccccc5)CC4)ccc3C2=O)C(=O)N1 (stereo not shown) [GT-03994, 3-(5-((4-benzhydryl-1,4-diazepan-1-yl)methyl)-1-oxoisoindolin-2-yl)piperidine-2,6-dione] | < 500 nM | B (B represents substrate protein remaining % > 50%) | B (B represents substrate protein remaining % > 50%) | A (A represents 0% ≤ substrate protein remaining % ≤ 50%) | 
O=C1CCC(N2Cc3c(ccc(CN4CC5CCC4CN5C(c4ccccc4)c4ccccc4)c3F)C2=O)C(=O)N1 (stereo not shown) [GT-04163, 3-(5-((5-benzhydryl-2,5-diazabicyclo[2.2.2]octan-2-yl)methyl)-4-fluoro-1-oxoisoindolin-2-yl)piperidine-2,6-dione] | 500 to 1000 nM | B (B represents substrate protein remaining % > 50%) | A (A represents 0% ≤ substrate protein remaining % ≤ 50%) | A (A represents 0% ≤ substrate protein remaining % ≤ 50%) | 
O=C1CCC(N2Cc3c(ccc(CN4CCCN(C(c5ccccc5)c5ccccc5)CC4)c3F)C2=O)C(=O)N1 (stereo not shown) [GT-04164, 3-(5-((4-benzhydryl-1,4-diazepan-1-yl)methyl)-4-fluoro-1-oxoisoindolin-2-yl)piperidine-2,6-dione] | 500 to 1000 nM | B (B represents substrate protein remaining % > 50%) | B (B represents substrate protein remaining % > 50%) | A (A represents 0% ≤ substrate protein remaining % ≤ 50%) | 
O=C1CCC(N2Cc3cc(CN4CCN(C(c5ccccn5)c5ccccn5)CC4)ccc3C2=O)C(=O)N1 (stereo not shown) [GT-04383, 3-(5-((4-(di(pyridin-2-yl)methyl)piperazin-1-yl)methyl)-1-oxoisoindolin-2-yl)piperidine-2,6-dione] | < 500 nM | B (B represents substrate protein remaining % > 50%) | B (B represents substrate protein remaining % > 50%) | A (A represents 0% ≤ substrate protein remaining % ≤ 50%) | 
O=C1CCC(N2Cc3cc(CN4CCN(C(c5ccccn5)c5ccccn5)CC4)c(F)cc3C2=O)C(=O)N1 (stereo not shown) [GT-04384, 3-(5-((4-(di(pyridin-2-yl)methyl)piperazin-1-yl)methyl)-6-fluoro-1-oxoisoindolin-2-yl)piperidine-2,6-dione] | 500 to 1000 nM | B (B represents substrate protein remaining % > 50%) | B (B represents substrate protein remaining % > 50%) | A (A represents 0% ≤ substrate protein remaining % ≤ 50%) | 
O=C1CCC(N2Cc3c(CN4CCN(C(c5ccccc5)c5ccncc5)CC4)cccc3C2=O)C(=O)N1 (stereo not shown) [GT-04945, 3-(1-oxo-4-((4-(phenyl(pyridin-4-yl)methyl)piperazin-1-yl)methyl)isoindolin-2-yl)piperidine-2,6-dione] | 500 to 1000 nM | B (B represents substrate protein remaining % > 50%) | B (B represents substrate protein remaining % > 50%) | A (A represents 0% ≤ substrate protein remaining % ≤ 50%) | 
O=C1CCC(N2Cc3c(CN4CCC(N(c5ccccc5)c5ccccn5)CC4)cccc3C2=O)C(=O)N1 (stereo not shown) [GT-04948, 3-(1-oxo-4-((4-(phenyl(pyridin-2-yl)amino)piperidin-1-yl)methyl)isoindolin-2-yl)piperidine-2,6-dione] | 500 to 1000 nM | B (B represents substrate protein remaining % > 50%) | B (B represents substrate protein remaining % > 50%) | A (A represents 0% ≤ substrate protein remaining % ≤ 50%) | < 500 nM
